Key:
Smn protein = Smn protein assay (HTRF) in cultured cells (SMA patient fibroblasts GM03813); assay type: cell-based, human; conditions: 48 hours; for EC1.5x for Smn protein expression: SMA patient fibroblast cells (GM03813), HTRF, 7-point concentration data, concentration producing 1.5 times Smn protein vs DMSO vehicle control; for maximum fold (Fold) increase of Smn protein: SMA patient fibroblast cells, 7-point concentration curve, relative to vehicle control
Procedure, shortened: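 Smn level is expressed as fold over vehicle, from blank-corrected ΔF of the 665/620 nm HTRF ratio. Readout used anti-SMN d2 and kryptate antibodies on RIPA lysates. GM03813 SMA fibroblasts had 48 h exposure at 37° C to seven 3.16-fold compound dilutions, run in triplicate.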

[1] = system: SMN2 minigene mRNA (SMN2-A minigene construct); experiment: SMN2 minigene mRNA splicing RT-qPCR assay in cultured cells; assay type: cell-based, human; conditions: Homo sapiens, HEK293-H; HEK293H cells stably transfected with SMN2-A minigene, 24 hours, 7-point concentration data; concentration giving 1.5-fold SMN2 full length mRNA relative to vehicle-treated cells; read-out: EC1.5x for production of full length SMN2 mRNA
Procedure, shortened: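 Full-length SMN2 minigene mRNA, measured by exon 7/luciferase-specific RT-qPCR that excludes endogenous SMN1/SMN2, was normalized to GAPDH and expressed relative to vehicle-treated cells via modified ΔΔCt. Stably transfected HEK293H cells received compound (7-point, 3.16-fold series, duplicates) for 24 h at 37 °C.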

Row | SMILES | EC1.5x for Smn protein expression (Smn protein) | maximum fold (Fold) increase of Smn protein (Smn protein) | melting point | EC (1.5-fold) [1]
1 | CN1CCN(c2ccc3cc(-c4cn5cccc(F)c5n4)c(=O)oc3n2)CC1 [Cpd 110, 3-(8-fluoroimidazo[1,2-a]pyridin-2-yl)-7-(4-methylpiperazin-1-yl)-2H-pyrano[2,3-b]pyridin-2-one] | **** (an EC1.5×≦0.3 μM is indicated by four stars (****)) | **** (a fold increase between >1.5 and ≦1.65 is indicated by four stars (****)) | 258 to 262 °C | ≤ 0.1 µM
2 | CN1CCN(c2ccc3cc(-c4cn5cccc(Cl)c5n4)c(=O)oc3n2)CC1 [Cpd 111, 3-(8-chloroimidazo[1,2-a]pyridin-2-yl)-7-(4-methylpiperazin-1-yl)-2H-pyrano[2,3-b]pyridin-2-one] | **** (an EC1.5×≦0.3 μM is indicated by four stars (****)) | *** (a fold increase between >1.35 and ≦1.5 is indicated by three stars (***)) | 256 to 259 °C | ≤ 0.1 µM
3 | Cc1cc(F)c2nc(-c3cc4ccc(N5CCCN(C)CC5)nc4oc3=O)cn2c1 [Cpd 113, 3-(8-fluoro-6-methylimidazo[1,2-a]pyridin-2-yl)-7-(4-methyl-1,4-diazepan-1-yl)-2H-pyrano[2,3-b]pyridin-2-one] | *** (an EC1.5× between >0.3 μM and ≦1 μM is indicated by three stars (***)) | **** (a fold increase between >1.5 and ≦1.65 is indicated by four stars (****)) | 269 to 273 °C | ≤ 0.1 µM
4 | CN1CCCN(c2ccc3cc(-c4cn5ccsc5n4)c(=O)oc3n2)CC1 [Cpd 114, 3-(imidazo[2,1-b][1,3]thiazol-6-yl)-7-(4-methyl-1,4-diazepan-1-yl)-2H-pyrano[2,3-b]pyridin-2-one] | *** (an EC1.5× between >0.3 μM and ≦1 μM is indicated by three stars (***)) | **** (a fold increase between >1.5 and ≦1.65 is indicated by four stars (****)) | 224 to 226 °C | ≤ 0.1 µM
5 | Cc1ccn2cc(-c3cc4ccc(N5CCCN(C)CC5)nc4oc3=O)nc2c1 [Cpd 115, 7-(4-methyl-1,4-diazepan-1-yl)-3-(7-methylimidazo[1,2-a]pyridin-2-yl)-2H-pyrano[2,3-b]pyridin-2-one] |  | *** (a fold increase between >1.35 and ≦1.5 is indicated by three stars (***)) | 241 to 243 °C | ≤ 0.1 µM
6 | Cc1ccc2nc(-c3cc4ccc(N5CCCN(C)CC5)nc4oc3=O)cn2c1 [Cpd 116, 7-(4-methyl-1,4-diazepan-1-yl)-3-(6-methylimidazo[1,2-a]pyridin-2-yl)-2H-pyrano[2,3-b]pyridin-2-one] | *** (an EC1.5× between >0.3 μM and ≦1 μM is indicated by three stars (***)) | *** (a fold increase between >1.35 and ≦1.5 is indicated by three stars (***)) | 233 to 236 °C | ≤ 0.1 µM
7 | CN1CCN(c2ccc3cc(-c4cn5cccnc5n4)c(=O)oc3n2)CC1 [Cpd 117, 3-(imidazo[1,2-a]pyrimidin-2-yl)-7-(4-methylpiperazin-1-yl)-2H-pyrano[2,3-b]pyridin-2-one] | *** (an EC1.5× between >0.3 μM and ≦1 μM is indicated by three stars (***)) | **** (a fold increase between >1.5 and ≦1.65 is indicated by four stars (****)) | 266 to 269 °C | 0.1 to 0.3 µM
8 | C[C@@H]1CN(c2ccc3cc(-c4cn5cccnc5n4)c(=O)oc3n2)C[C@H](C)N1C [Cpd 118, 3-(imidazo[1,2-a]pyrimidin-2-yl)-7-[(3R,5S)-3,4,5-trimethylpiperazin-1-yl]-2H-pyrano[2,3-b]pyridin-2-one] | ** (an EC1.5× between >1 and ≦3 μM is indicated by two stars (**)) | *** (a fold increase between >1.35 and ≦1.5 is indicated by three stars (***)) | 286 to 289 °C | 0.1 to 0.3 µM
